Assay results as given in patent US20020010317A1, “Method for generating immunogens that elicit neutralizing antibodies against fusion-active regions of HIV envelope proteins” (priority 2000, published 2002).

What was measured:
[1] = tested on: HIV-1 envelope mediated cell-cell fusion; conditions: cited from earlier work
gp41 (HXB2 strain) = gp41 (HXB2 strain) (Human immunodeficiency virus type 1 group M subtype B, UniProt P04578)
[2] = tested on: divergent HIV-1 virus isolates; assay: immunization of guinea pigs with P-18, neutralizing antibody response; format: in vivo, guinea pig; conditions: two of three animals; 100 μg intramuscularly in Freund's adjuvant
Description: Antibody binding assays can be used to determine the ability of the immunogen vaccines to generate an immune response to various forms of envelope (native vs. denatured). Virus neutralization assays can be used to characterize the antibody response raised against the gp41 domains. The most encouraging results have been from animals immunized with the peptide P-18 modeling the C-helix entry domain (amino acid residues 643-678 of gp41 ).
Guinea pigs were immunized intramuscularly with 100 μg of P-18 formulated in either Freund's complete (prime) or incomplete (boost) adjuvant. Animals were immunized on days 0, 21, 34, 48 and 62. Blood was collected on days 44,58 and 72. In our initial screen, sera at a 1:10 dilution were tested for the ability to inhibit virus-induced cell killing. In these assays, two of the three animals receiving the P-18 peptide (guinea pigs 233 and 234) were able to block the cytopathic effects of a pair of prototypic HIV-1 isolates. Against the MN isolate, >80% protection was achieved, while against the RF isolate, protection was >50%.

gp41 (HXB2 strain), sequence (P04578 512-856): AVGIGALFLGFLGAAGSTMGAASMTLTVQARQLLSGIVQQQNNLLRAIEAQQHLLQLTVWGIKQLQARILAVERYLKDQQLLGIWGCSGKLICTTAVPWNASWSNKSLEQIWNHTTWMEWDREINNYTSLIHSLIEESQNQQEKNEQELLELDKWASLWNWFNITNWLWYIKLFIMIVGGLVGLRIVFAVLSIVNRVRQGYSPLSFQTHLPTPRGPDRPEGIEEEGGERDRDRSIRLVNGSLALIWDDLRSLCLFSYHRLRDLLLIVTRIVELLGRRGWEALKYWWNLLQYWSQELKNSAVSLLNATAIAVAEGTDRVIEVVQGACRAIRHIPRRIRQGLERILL

Substance: NNLLRAIEAQQHLLQLTVWQIKQLQARILAVERYLKDQ (NNLLRAIEAQQHLLQLTVWGIKQLQARILAVERYLKDQ) [DP-107]
- level inhibiting cell-cell fusion [1]: sub-μg/ml levels

Substance: P-18-GGG-YPYDVPDYAGPG [P-18HA]
- binding to and co-immunoprecipitation of gp41 (gp41 (HXB2 strain)): bound to and co-immunoprecipitated gp41

Substance: enfuvirtide
- neutralizing antibody response in immunized animals [2]: exhibited a neutralizing antibody response against divergent virus isolates
- concentration inhibiting envelope mediated cell-cell fusion ([1]; concentrations as low as): about 1 ng/ml
